{
  "source": "paper PMC6704710",
  "about": "“Preclinical evaluation of 3D185, a novel potent inhibitor of FGFR1/2/3 and CSF-1R, in FGFR-dependent and macrophage-dominant cancer models” (Journal of Experimental & Clinical Cancer Research : CR, 2019)",
  "key": {"PDHK4(h)": {"target": "T1, PDHK4(h) (Homo sapiens, UniProt Q16654)", "T1 construct": "purchased Eurofins (KinaseProfiler)", "assay": "Eurofins kinase panel", "format": "biochemical", "details": "read-out: Inhibition rate (%)"}, "PBMC (CSF-1)": {"tested_on": "PBMC (CSF-1)", "assay": "Macrophage survival (CCK-8)", "format": "cell-based", "details": "Homo sapiens, 168 h, 7 days, mean ± SD", "procedure": "Murine bone marrow and human monocytes were stimulated with CSF-1 for 7 days together with the indicated inhibitor, and cell viability was evaluated by the CCK-8 assay. The IC50 values are shown as the mean ± SD (nM) from two independent tests. B-E, To test the impact of 3D185 on the polarization of CSF-1-induced macrophages, murine bone marrow cells and human monocytes were induced to mature into macrophages with CSF-1 for 7 days and then stimulated with CSF-1, IL-4 and IL-13 for an additional 48 h. The expression of the markers MHC-II (b), CD86 (c), and CD206 (d) on induced murine macrophages and CD206 expression on induced human macrophages (e) were determined by flow cytometry, and the mean fluorescence intensity (MFI) was analyzed with FlowJo. Representative data from two independent experiments. f Murine bone marrow cells (left panel) and human monocytes (right panel) were induced to mature into macrophages with CSF-1 for 7 days and then stimulated with CSF-1, IL-4 and IL-13 and treated with vehicle or the indicated inhibitor for an additional 48 h. Then, all cells were collected to count viable cells by staining with trypan blue\nMurine bone marrow-derived macrophages (BMDMs) and PBMCs were used for cell viability studies. […] Cell viability was measured using the CCK-8 assay. For IL-4/IL-13-induced macrophage survival analysis, viable cells were counted by trypan blue exclusion."}, "IRE1(h)": {"target": "T2, IRE1(h) (Homo sapiens, UniProt O75460)", "T2 construct": "purchased Eurofins (KinaseProfiler)", "T2 sequence (O75460 19-977)": "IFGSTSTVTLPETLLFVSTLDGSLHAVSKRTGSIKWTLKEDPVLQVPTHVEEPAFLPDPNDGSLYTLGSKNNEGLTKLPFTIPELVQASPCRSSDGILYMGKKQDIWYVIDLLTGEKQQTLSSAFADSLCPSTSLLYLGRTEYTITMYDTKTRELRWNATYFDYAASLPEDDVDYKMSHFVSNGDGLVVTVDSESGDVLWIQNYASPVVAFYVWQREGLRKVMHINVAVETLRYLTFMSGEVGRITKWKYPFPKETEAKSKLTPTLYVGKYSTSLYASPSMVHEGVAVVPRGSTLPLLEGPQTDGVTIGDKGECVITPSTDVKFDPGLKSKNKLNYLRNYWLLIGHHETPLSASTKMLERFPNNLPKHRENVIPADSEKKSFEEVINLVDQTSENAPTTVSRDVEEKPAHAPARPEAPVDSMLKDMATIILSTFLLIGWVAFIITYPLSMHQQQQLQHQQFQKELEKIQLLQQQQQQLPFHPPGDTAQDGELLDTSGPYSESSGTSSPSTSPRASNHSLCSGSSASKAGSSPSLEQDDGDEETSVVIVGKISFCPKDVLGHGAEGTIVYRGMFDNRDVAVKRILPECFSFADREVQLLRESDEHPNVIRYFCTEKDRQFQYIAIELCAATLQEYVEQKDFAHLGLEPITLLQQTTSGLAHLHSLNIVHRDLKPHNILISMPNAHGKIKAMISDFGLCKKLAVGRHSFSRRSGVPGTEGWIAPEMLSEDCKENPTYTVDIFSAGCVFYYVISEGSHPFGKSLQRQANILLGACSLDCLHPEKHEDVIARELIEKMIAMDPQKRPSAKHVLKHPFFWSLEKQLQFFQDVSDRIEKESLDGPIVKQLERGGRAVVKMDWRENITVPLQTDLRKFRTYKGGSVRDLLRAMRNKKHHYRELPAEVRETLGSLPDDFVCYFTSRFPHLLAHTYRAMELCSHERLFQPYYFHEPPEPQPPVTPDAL", "assay": "Eurofins kinase panel", "format": "biochemical", "details": "read-out: Inhibition rate (%)", "procedure": "Active FGFR1–4, VEGFR1, KDR, VEGFR3, PDGFRα and PDGFRβ proteins were purchased from Eurofins (Fremont, United States), and kinase activity was assessed using ELISA, as previously reported. […]. Increasing concentrations of ATP were diluted for the kinase reaction in the ATP competition assay. CSF-1R kinase activity was analyzed using the Z’-LYTE™ Kinase Assay Kit (Thermo Fisher, United States). The assay formats are described in the SelectScreen Kinase Profiling Service Zlyte protocol. IC50 values were calculated by dose-response curve fitting using Prism (Graph Pad)."}, "AMPKα2(h)": {"target": "T3, AMPKα2(h) (Homo sapiens, UniProt P54646)", "T3 construct": "purchased Eurofins (KinaseProfiler)", "assay": "Eurofins kinase panel", "format": "biochemical", "details": "read-out: Inhibition rate (%)"}, "FGFR2(N549H)(h)": {"target": "FGFR2(N549H)(h) (Homo sapiens, UniProt P21802, N549H)", "sequence (P21802 22-821 N549H)": "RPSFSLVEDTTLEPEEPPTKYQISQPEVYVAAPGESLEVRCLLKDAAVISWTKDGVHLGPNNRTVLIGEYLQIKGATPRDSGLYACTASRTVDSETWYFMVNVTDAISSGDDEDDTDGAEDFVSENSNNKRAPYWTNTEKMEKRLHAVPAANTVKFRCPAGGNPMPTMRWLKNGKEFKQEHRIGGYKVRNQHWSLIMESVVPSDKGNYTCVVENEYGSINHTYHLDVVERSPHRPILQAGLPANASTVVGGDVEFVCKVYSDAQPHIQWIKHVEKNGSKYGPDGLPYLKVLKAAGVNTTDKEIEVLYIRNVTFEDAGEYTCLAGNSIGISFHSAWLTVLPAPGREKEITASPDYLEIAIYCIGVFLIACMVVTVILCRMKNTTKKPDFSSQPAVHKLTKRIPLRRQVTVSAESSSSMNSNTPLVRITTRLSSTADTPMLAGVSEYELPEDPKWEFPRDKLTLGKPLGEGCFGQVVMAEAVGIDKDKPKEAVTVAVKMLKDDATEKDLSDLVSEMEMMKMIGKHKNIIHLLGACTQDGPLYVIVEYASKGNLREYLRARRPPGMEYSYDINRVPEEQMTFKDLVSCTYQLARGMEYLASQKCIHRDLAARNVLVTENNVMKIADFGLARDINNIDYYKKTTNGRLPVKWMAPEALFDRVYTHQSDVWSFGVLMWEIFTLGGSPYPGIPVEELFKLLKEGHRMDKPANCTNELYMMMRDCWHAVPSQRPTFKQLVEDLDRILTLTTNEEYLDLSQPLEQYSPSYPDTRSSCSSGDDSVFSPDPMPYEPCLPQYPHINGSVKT", "assay": "Eurofins kinase panel", "format": "biochemical"}, "ULK3(h)": {"target": "T4, ULK3(h) (Homo sapiens, UniProt Q6PHR2)", "T4 construct": "purchased Eurofins (KinaseProfiler)", "T4 sequence (Q6PHR2 1-472)": "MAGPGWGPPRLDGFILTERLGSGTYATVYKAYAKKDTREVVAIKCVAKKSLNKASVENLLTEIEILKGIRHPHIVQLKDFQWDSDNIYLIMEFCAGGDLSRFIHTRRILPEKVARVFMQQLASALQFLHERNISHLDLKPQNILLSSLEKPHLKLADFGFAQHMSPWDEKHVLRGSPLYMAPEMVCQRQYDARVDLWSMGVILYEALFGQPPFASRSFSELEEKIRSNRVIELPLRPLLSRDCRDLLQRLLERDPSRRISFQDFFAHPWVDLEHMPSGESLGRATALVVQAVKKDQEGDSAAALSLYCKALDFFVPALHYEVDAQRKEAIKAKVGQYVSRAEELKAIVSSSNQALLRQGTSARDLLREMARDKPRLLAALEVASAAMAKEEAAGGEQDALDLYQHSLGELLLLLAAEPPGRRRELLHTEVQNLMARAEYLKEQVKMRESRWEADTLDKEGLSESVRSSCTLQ", "assay": "Eurofins kinase panel", "format": "biochemical", "details": "read-out: Inhibition rate (%)"}, "DRAK1(h)": {"target": "T5, DRAK1(h) (Homo sapiens, UniProt Q9UEE5)", "T5 construct": "purchased Eurofins (KinaseProfiler)", "T5 sequence (Q9UEE5 1-414)": "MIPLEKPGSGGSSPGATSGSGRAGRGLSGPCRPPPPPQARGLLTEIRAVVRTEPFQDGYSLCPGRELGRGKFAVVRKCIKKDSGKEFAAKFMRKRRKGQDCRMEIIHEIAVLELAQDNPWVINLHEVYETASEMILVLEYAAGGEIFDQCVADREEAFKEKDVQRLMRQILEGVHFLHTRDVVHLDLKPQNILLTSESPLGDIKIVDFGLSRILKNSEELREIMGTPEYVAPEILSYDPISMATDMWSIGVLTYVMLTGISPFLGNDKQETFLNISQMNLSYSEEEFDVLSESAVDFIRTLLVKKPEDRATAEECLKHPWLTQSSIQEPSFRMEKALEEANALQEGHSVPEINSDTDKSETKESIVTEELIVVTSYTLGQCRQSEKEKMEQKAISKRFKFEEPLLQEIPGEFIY", "assay": "Eurofins kinase panel", "format": "biochemical", "details": "read-out: Inhibition rate (%)"}, "Aurora-C(h)": {"target": "T6, Aurora-C(h) (Homo sapiens, UniProt Q9UQB9)", "T6 construct": "purchased Eurofins (KinaseProfiler)", "T6 sequence (Q9UQB9 1-309)": "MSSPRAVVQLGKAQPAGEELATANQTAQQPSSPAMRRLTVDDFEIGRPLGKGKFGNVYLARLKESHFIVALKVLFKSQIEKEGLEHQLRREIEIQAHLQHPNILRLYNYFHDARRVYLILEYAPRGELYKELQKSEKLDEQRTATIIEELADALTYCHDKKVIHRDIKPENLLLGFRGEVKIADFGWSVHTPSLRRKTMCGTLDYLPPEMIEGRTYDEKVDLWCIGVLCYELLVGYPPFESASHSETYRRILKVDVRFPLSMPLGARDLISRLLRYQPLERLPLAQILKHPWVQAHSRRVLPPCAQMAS", "assay": "Eurofins kinase panel", "format": "biochemical", "details": "read-out: Inhibition rate (%)"}},
  "data": [
    {"compound": "COc1cc(OC)c(Cl)c(-c2ccc3c(NC(=O)c4ccc(N5CCNC(C)(C)C5)cc4)n[nH]c3n2)c1Cl", "note": "[3D185]", "values": [
      {"measurement": "inhibition at 0.01 µM", "setting": "PDHK4(h); 10 nM", "result": -2, "unit": "%"},
      {"measurement": "inhibition at 0.1 µM", "setting": "PDHK4(h); 100 nM", "result": -2, "unit": "%"},
      {"measurement": "inhibition at 1 µM", "setting": "PDHK4(h); 1000 nM", "result": 0, "unit": "%"},
      {"measurement": "IC50", "setting": "PBMC (CSF-1)", "result": 0.119, "unit": "µM"},
      {"measurement": "inhibition at 0.01 µM", "setting": "IRE1(h); 10 nM", "result": -1, "unit": "%"},
      {"measurement": "inhibition at 0.1 µM", "setting": "IRE1(h); 100 nM", "result": -13, "unit": "%"},
      {"measurement": "inhibition at 1 µM", "setting": "IRE1(h); 1000 nM", "result": 6, "unit": "%"},
      {"measurement": "inhibition at 0.01 µM", "setting": "AMPKα2(h); 10 nM", "result": -4, "unit": "%"},
      {"measurement": "inhibition at 0.1 µM", "setting": "AMPKα2(h); 100 nM", "result": -8, "unit": "%"},
      {"measurement": "inhibition at 1 µM", "setting": "AMPKα2(h); 1000 nM", "result": 9, "unit": "%"},
      {"measurement": "IC50", "setting": "FGFR2(N549H)(h); estimated from 372-kinase panel", "result": "< 0.01", "unit": "µM"},
      {"measurement": "inhibition at 0.01 µM", "setting": "FGFR2(N549H)(h); read-out: Inhibition rate (%)", "result": 96, "unit": "%"},
      {"measurement": "inhibition at 0.1 µM", "setting": "FGFR2(N549H)(h); read-out: Inhibition rate (%)", "result": 98, "unit": "%"},
      {"measurement": "inhibition at 1 µM", "setting": "FGFR2(N549H)(h); read-out: Inhibition rate (%)", "result": 100, "unit": "%"},
      {"measurement": "inhibition at 0.01 µM", "setting": "ULK3(h); 10 nM", "result": -8, "unit": "%"},
      {"measurement": "inhibition at 0.1 µM", "setting": "ULK3(h); 100 nM", "result": 2, "unit": "%"},
      {"measurement": "inhibition at 1 µM", "setting": "ULK3(h); 1000 nM", "result": -1, "unit": "%"},
      {"measurement": "inhibition at 0.01 µM", "setting": "DRAK1(h); 10 nM", "result": -4, "unit": "%"},
      {"measurement": "inhibition at 0.1 µM", "setting": "DRAK1(h); 100 nM", "result": 7, "unit": "%"},
      {"measurement": "inhibition at 1 µM", "setting": "DRAK1(h); 1000 nM", "result": 14, "unit": "%"},
      {"measurement": "inhibition at 0.01 µM", "setting": "Aurora-C(h); 10 nM", "result": -15, "unit": "%"},
      {"measurement": "inhibition at 0.1 µM", "setting": "Aurora-C(h); 100 nM", "result": 6, "unit": "%"},
      {"measurement": "inhibition at 1 µM", "setting": "Aurora-C(h); 1000 nM", "result": -2, "unit": "%"}
    ]}
  ]
}
